Assay results published in patent US12421210B2, “Fused bicyclic heterocycles as therapeutic agents” (NEW YORK UNIVERSITY, priority 2018, dated 2025).
Like-named read-outs stand apart in the source and are kept apart here.

Target: human NAMPT enzyme (His-hNAMPT) (Homo sapiens (Human), UniProt P43490)
Experiment: NAMPT enzymatic inhibition assay (fluorescence, NADH product)
Assay type: biochemical
[1] = [BPS], read-out: NAMPT IC50 (μM) [BPS]
[2] = [HDB], read-out: NAMPT IC50 (μM) [HDB]

Sequence of human NAMPT enzyme (His-hNAMPT) (P43490 whole entry): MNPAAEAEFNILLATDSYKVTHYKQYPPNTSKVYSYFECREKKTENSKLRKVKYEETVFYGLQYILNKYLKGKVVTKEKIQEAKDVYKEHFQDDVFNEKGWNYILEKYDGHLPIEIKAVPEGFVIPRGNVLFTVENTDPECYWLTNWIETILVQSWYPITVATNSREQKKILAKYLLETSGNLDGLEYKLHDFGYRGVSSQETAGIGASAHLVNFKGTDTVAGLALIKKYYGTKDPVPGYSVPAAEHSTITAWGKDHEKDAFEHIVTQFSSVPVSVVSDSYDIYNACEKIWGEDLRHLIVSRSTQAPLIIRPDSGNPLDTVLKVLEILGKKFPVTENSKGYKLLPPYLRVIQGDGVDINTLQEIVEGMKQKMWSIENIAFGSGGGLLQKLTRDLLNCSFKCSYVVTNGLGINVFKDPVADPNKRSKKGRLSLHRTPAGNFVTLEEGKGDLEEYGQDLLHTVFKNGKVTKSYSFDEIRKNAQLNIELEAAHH

Row | Compound | IC50 [1] [µM] | IC50 [2] [µM]
1 | CC(C)(C)OC(=O)N1C[C@H]2CC(CNC(=O)NCc3cccnc3)C[C@H]2C1 (some centres unmarked) [Example 268, tert-butyl 5-((3-(pyridin-3-ylmethyl)ureido)methyl)hexahydrocyclopenta[c]pyrrole-2(1H)-carboxylate] | 0.5 to 0.99 | –
2 | CC(C)(C)OC(=O)N1CCC2CC(CNC(=O)NCc3cccnc3)CC2C1 (centres unmarked) [Example 271, tert-butyl 6-((3-(pyridin-3-ylmethyl)ureido)methyl)hexahydro-1H-cyclopenta[c]pyridine-2(3H)-carboxylate] | 1 to 29 | –
3 | CC(C)(C)OC(=O)N1CCC2CC(CNC(=O)N3Cc4ccncc4C3)CC2C1 (centres unmarked) [Example 272, tert-butyl 6-((2,3-dihydro-1H-pyrrolo[3,4-c]pyridine-2-carboxamido)methyl)hexahydro-1H-cyclopenta[c]pyridine-2(3H)-carboxylate] | 0.01 to 0.49 | –
4 | CC(C)(C)OC(=O)N1C[C@H]2C[C@H](CNC(=O)N3Cc4ccncc4C3)C[C@H]2C1 [Example 273, (3aR,5s,6aS)-tert-butyl 5-((2,3-dihydro-1H-pyrrolo[3,4-c]pyridine-2-carboxamido)methyl)hexahydrocyclopenta[c]pyrrole-2(1H)-carboxylate] | 1 to 29 | –
5 | CC(C)(C)OC(=O)N1C[C@H]2C[C@@H](CCNC(=O)/C=C/c3cccnc3)C[C@H]2C1 [Example 274, (3aR,5r,6aS)-tert-butyl 5-(2-((E)-3-(pyridin-3 yl)acrylamido)ethyl)hexahydrocyclopenta[c]pyrrole-2(1H)-carboxylate] | 0.01 to 0.49 | –
6 | CC(C)(C)OC(=O)N1C[C@H]2C[C@@H](CCNC(=O)COc3cccnc3)C[C@H]2C1 [Example 275, (3aR,5r,6aS)-tert-butyl 5-(2-(2-(pyridin-3-yloxy)acetamido)ethyl)hexahydrocyclopenta[c]pyrrole-2(1H)-carboxylate] | 0.5 to 0.99 | –
7 | O=C(/C=C/c1cccnc1)NCC[C@@H]1[C@H]2CN(C(c3ccccc3)c3ccccc3)C[C@@H]12 [Example 276, (E)-N-(2-((1R,5S,6s)-3-benzhydryl-3-azabicyclo[3.1.0]hexan-6-yl)ethyl)-3-(pyridin-3-yl)acrylamide] | – | < 0.01
8 | O=C(/C=C/c1cccnc1)NCC[C@@H]1[C@H]2CN(c3nc(N4CCOCC4)ncc3F)C[C@@H]12 [Example 277, (E)-N-(2-((1R,5S,6s)-3-(5-fluoro-2-morpholinopyrimidin-4-yl)-3-azabicyclo[3.1.0]hexan-6-yl)ethyl)-3-(pyridin-3-yl)acrylamide] | – | < 0.01
9 | O=C(/C=C/c1cccnc1)NCC[C@@H]1[C@H]2CN(c3nc(OC4CCCC4)ncc3F)C[C@@H]12 [Example 278, (E)-N-(2-((1R,5S,6s)-3-(2-(cyclopentyloxy)-5-fluoropyrimidin-4-yl)-3-azabicyclo[3.1.0]hexan-6-yl)ethyl)-3-(pyridin-3-yl)acrylamide] | – | < 0.01
10 | CC(C)(C)OC(=O)N1C[C@@H]2[C@H](CCNC(=O)/C=C/c3cccnc3)[C@@H]2C1 [Example 279, (1R,5S,6r)-tert-butyl 6-(2-((E)-3-(pyridin-3-yl)acrylamido)ethyl)-3-azabicyclo[3.1.0]hexane-3-carboxylate] | – | 0.01 to 0.49
11 | O=C(/C=C/c1cccnc1)NCC[C@H]1[C@H]2CN(Cc3ccccc3)C[C@@H]12 [Example 280, (E)-N-(2-((1R,5S,6r)-3-benzyl-3-azabicyclo[3.1.0]hexan-6-yl)ethyl)-3-(pyridin-3-yl)acrylamide] | – | 0.01 to 0.49
12 | O=C(/C=C/c1cccnc1)NCC[C@H]1[C@H]2CN(c3ccccc3)C[C@@H]12 [Example 281, (E)-N-(2-((1R,5S,6r)-3-phenyl-3-azabicyclo[3.1.0]hexan-6-yl)ethyl)-3-(pyridin-3-yl)acrylamide] | – | 0.01 to 0.49
13 | O=C(O)COc1ncc(F)c(N2C[C@@H]3[C@@H](CCNC(=O)/C=C/c4cccnc4)[C@@H]3C2)n1 [Example 282, 2-((5-fluoro-4-((1R,5S,6s)-6-(2-((E)-3-(pyridin-3-yl)acrylamido)ethyl)-3-azabicyclo[3.1.0]hexan-3-yl)pyrimidin-2-yl)oxy)acetic acid] | – | 0.01 to 0.49
14 | NC(=O)C(c1ccccc1)N1C[C@@H]2[C@@H](CCNC(=O)/C=C/c3cccnc3)[C@@H]2C1 (stereo partly drawn) [Example 283, (E)-N-(2-((1R,5S,6s)-3-(2-amino-2-oxo-1-phenylethyl)-3-azabicyclo[3.1.0]hexan-6-yl)ethyl)-3-(pyridin-3-yl)acrylamide] | – | < 0.01
15 | NC(=O)COc1ncc(F)c(N2C[C@@H]3[C@@H](CCNC(=O)/C=C/c4cccnc4)[C@@H]3C2)n1 [Example 285, (E)-N-(2-((1R,5S,6s)-3-(2-(2-amino-2-oxoethoxy)-5-fluoropyrimidin-4-yl)-3-azabicyclo[3.1.0]hexan-6-yl)ethyl)-3-(pyridin-3-yl)acrylamide] | – | < 0.01
16 | O=C(/C=C/c1cccnc1)NCC[C@@H]1[C@H]2CN(C(CO)c3ccccc3)C[C@@H]12 (stereo partly drawn) [Example 286, (E)-N-(2-((1R,5S,6s)-3-(2-hydroxy-1-phenylethyl)-3-azabicyclo[3.1.0]hexan-6-yl)ethyl)-3-(pyridin-3-yl)acrylamide] | – | 0.01 to 0.49
17 | O=C(/C=C/c1cccnc1)NCC[C@@H]1[C@H]2CN(c3nc(-c4ccccc4)ncc3F)C[C@@H]12 [Example 287, (E)-N-(2-((1R,5S,6s)-3-(5-fluoro-2-phenylpyrimidin-4-yl)-3-azabicyclo[3.1.0]hexan-6-yl)ethyl)-3-(pyridin-3-yl)acrylamide] | – | < 0.01
18 | CP(C)(=O)c1cccc(N2C[C@@H]3[C@@H](CCNC(=O)/C=C/c4cccnc4)[C@@H]3C2)c1 [Example 288, (E)-N-(2-((1R,5S,6s)-3-(3-(dimethylphosphoryl)phenyl)-3-azabicyclo[3.1.0]hexan-6-yl)ethyl)-3-(pyridin-3-yl)acrylamide] | – | 0.01 to 0.49
19 | O=C(/C=C/c1cccnc1)NCC[C@@]1(F)[C@@H]2CN(Cc3ccccc3)C[C@@H]21 [Example 289, (E)-N-(2-((1R,5S,6r)-3-benzyl-6-fluoro-3-azabicyclo[3.1.0]hexan-6-yl)ethyl)-3-(pyridin-3-yl)acrylamide] | – | 0.01 to 0.49
20 | Nc1ccc(/C=C/C(=O)NCC[C@@]2(F)[C@@H]3CN(c4ncccn4)C[C@@H]32)cn1 [Example 290, (E)-3-(6-aminopyridin-3-yl)-N-(2-((1R,5S,6r)-6-fluoro-3-(pyrimidin-2-yl)-3-azabicyclo[3.1.0]hexan-6-yl)ethyl)acrylamide] | – | 0.01 to 0.49
21 | CC(C)(C)OC(=O)N1C[C@@H]2[C@H](C1)[C@@]2(F)CCNC(=O)/C=C/c1cccnc1 [Example 291, (1R,5S,6r)-tert-butyl 6-fluoro-6-(2-((E)-3-(pyridin-3-yl)acrylamido)ethyl)-3-azabicyclo[3.1.0]hexane-3-carboxylate] | – | 0.01 to 0.49
22 | O=C(/C=C/c1cccnc1)NCC[C@@]1(F)[C@@H]2CN(c3nc(Cl)ncc3F)C[C@@H]21 [Example 292, (E)-N-(2-((1R,5S,6r)-3-(2-chloro-5-fluoropyrimidin-4-yl)-6-fluoro-3-azabicyclo[3.1.0]hexan-6-yl)ethyl)-3-(pyridin-3-yl)acrylamide] | – | 0.01 to 0.49
23 | CC(C)(C)NC(=O)N1C[C@@H]2[C@@H](CCNC(=O)/C=C/c3ccc(N)nc3)[C@@H]2C1 [Example 293, (1R,5S,6s)-6-(2-((E)-3-(6-aminopyridin-3-yl)acrylamido)ethyl)-N-(tert-butyl)-3-azabicyclo[3.1.0]hexane-3-carboxamide] | 0.01 to 0.49 | –
